Measurements as given in patent US12702715B2, “Targeted RNA degradation allows precision repurposing of protein-targeted small molecule medicines to RNA” (University of Florida Research Foundation, Incorporated, priority 2020, dated 2026).
“Also recorded” adds a separate entry of the source.

Legend:
FLT3 = FLT3 degradation Western blot in MDA-MB-231 cells; format: cell-based, human
Description: In each case, the secondary antibody was diluted two times more than the primary antibody.

[1] = Quantitation of 1 and 2 in mouse plasma and tissue; format: in vivo; conditions: male, C57BL/6, mouse, lung, ip, 56 mg/kg; intraperitoneal injection; read-out: drug exposure in the lung
Description: Quantitation of 1 and 2 in mouse plasma and tissue. Male C57BL/6 mice (n=3 per dose; 5-7 weeks) were intraperitoneally (i.p.) injected with 1 (24, 49 or 81 mg/kg) or 2 (17, 34 or 56 mg/kg) in a formulation of DMSO/Tween-80/H2O (10/10/80). After 48 h, mice were euthanized, and blood, lung and kidney were collected. Tissues were immediately frozen. Blood was centrifuged to generate plasma and immediately frozen. On the day of analysis, tissues were homogenized, mixed with 5-times volume of acetonitrile, and filtered. Drug levels were determined by mass spectrometry using an ABSciex 5500 mass spectrometer using multiple reaction monitoring.

[2] = molecular target: pre-miR-21's A-bulge (Dicer processing site in pre-miR-21); assay: Fluorescent binding affinity measurement, A-bulge RNA; set-up: species or system human
Description: (§1) Fluorescent Binding Affinity Measurements. Binding assays were completed as previously described^5. Briefly, the RNA of interest was folded as described in the “Solution-based Dye Displacement Assay” section, including the addition of BSA. Then, 1 was added to the RNA solution to a final concentration of 0.5 μM. The solution was serial diluted with 1× AB2 containing 0.5 μM of 1. The solutions were incubated at room temperature in the dark for 30 min. The solutions were then transferred to a black 384-well plate. Fluorescence intensity was measured using a Tecan plate reader (Gain: 100, Integration time: 40 μs) with excitation wavelength of and emission wavelength of 355 nm and 535 nm, respectively. The change in fluorescence was normalized to samples lacking RNA. Binding affinity was calculated by using Equation 2, as previously described^5. I=I0+0.5Δε{([FL]0+[RNA]0+Kd)−(([FL]0+[RNA]0+Kd)^2−4[FL]0[RNA]0)^0.5} (2) where I and I0 are the measured fluorescence intensity of compound with or without RNA, respectively, Δε is the difference between the fluorescence intensity with infinite concentration of RNA or without RNA, [FL]0 and [RNA]0 are the concentrations of small molecule and RNA, respectively, and Kd is the dissociation constant.

pre-miR-21 mutant [3] = assay: In vitro Dicer processing of pre-miR-21 mutant; format: biochemical
Description: (§2) In vitro Dicer Processing. The pre-miR-21 WT RNA or pre-miR-21 base pair mutant were 5′-end labeled with T4 polynucleotide kinase and [γ-^32P] ATP as described previously^7. The RNA was folded in 1× Reaction Buffer (Genlantis) by heating at 55° C. for 5 min and cooling slowly to room temperature on the benchtop. The mixture was then supplemented with 2.5 mM MgCl2 and 1 mM ATP. The Dicer processing reaction was performed as described previously^6. The cleavage products were resolved on a 15% polyacrylamide denaturing gel and imaged using a Molecular Dynamics Typhoon phosphorimager and quantified with QuantityOne software from Bio-Rad.

[4] = test system: base pair mutant RNA (control RNA); assay: Fluorescent binding affinity measurement, base pair mutant (control RNA); conditions: up to 40 μM of the mutant RNA
Description: as §1

pre-miR-21 = assay: In vitro Dicer processing of pre-miR-21; format: biochemical, human
Description: as §2

pre-miR-21 mutant [5] = assay: In vitro Chem-CLIP, pre-miR-21 mutant; format: binding; conditions: 1, 5, 20 or 100 μM
Description: In Vitro Chemical Cross-linking and Isolation by Pull Down (Chem-CLIP) and Competitive Chem-CLIP (C-Chem-CLIP). Growth medium [RMPI 1640 medium with L-glutamine & 25 mM HEPES (Corning)] was inactivated by heating at 95° C. to for 15 min and slowly cooling to room temperature at benchtop. Pre-miR-21 labeled with ^32P at the 5′-end (~10,000 counts) was folded in growth medium by heating at 95° C. for 1 min and slowly cooling to room temperature. To the samples was added Chem-CLIP probe 4 (1, 5, 20 or 100 μM) or negative control probe 5 (1, 5, 20 or 100 μM), and the mixtures were incubated at 37° C. for 1 h. The samples were then cross-linked by irradiation with 365 nm light for 10 min. The Chem-CLIP probe 4 or control probe 5, whether or not cross-linked to the RNA, was then clicked to disulfide biotin azide (10 mM in DMSO; 10 μL per sample; 1168-10, Click Chemistry Tools) by incubating in a solution containing 1×HEPES buffer (25 mM, pH 7), sodium ascorbate (10 μL/sample, 250 mM in H2O), CuSO4 (10 μL/sample, 50 mM in H2O), THPTA (10 μL/sample, 50 mM in H2O) for 2 h at 37° C. […] The radioactive signal from bound RNAs (on the beads) and unbound RNAs (from the wash steps) were measured by using a Beckman Coulter LS6500 Liquid Scintillation Counter. Enrichment of pre-miR-21 was calculated as previously described^6. […]

In the case of `CCOC(=O)C1=C(Nc2ccccc2)S/C(=C\c2ccc(OCCOCCOCCOCCNC(=O)NCCN3CCN(c4ccc5[nH]c(-c6c(N)c7c(F)cccc7[nH]c6=O)nc5c4)CC3)c(O)c2)C1=O` [Compound 2, Ribotac-Dovitinib], the “fold greater concentration than 1 required to compete off degradation by PROTAC 3” value (FLT3) is reported as 100 fold, the “concentration required to compete off the target degradation of PROTAC 3” value (FLT3; co-treatment with 3) is reported as 10 µM and the concentration at 48 h [1] is reported as 1000 nM.
For `CN1CCN(c2ccc3nc(-c4c(N)c5c(F)cccc5[nH]c4=O)[nH]c3c2)CC1` [Compound 1, Dovitinib, reference compound], the Kd [2] was 3000 nM, the “inhibition of Dicer processing of mutant pre-miR-21 lacking the 1 binding site” value (pre-miR-21 mutant [3]) was “had no effect; also recorded: unable to inhibit” and the “binding to control RNA / base pair mutant” value [4] was “No saturable binding”. The “in vitro processing of pre-miR-21” value (pre-miR-21) was “inhibited”.
With `C#CCCC1(CCC(=O)NCCN2CCN(c3ccc4[nH]c(-c5c(N)c6c(F)cccc6[nH]c5=O)nc4c3)CC2)N=N1` [Compound 4] the “enrichment of 32P-labeled pre-miR-21 mutant” value (pre-miR-21 mutant [5]) was “not mutant”.
